# From US11083732B2, “Use of negative modulators of GABA receptors containing alpha5 subunits as fast acting antidepressants” (University of Maryland, Baltimore, priority 2014, dated 2021)
# “Also recorded” adds a separate entry of the source.
# Tests used:
# [1] = test system: GluA1; assay: Western blotting of GluA1 in SLM tissue of hippocampal area CA1; format: in vivo, rat
# Text: Western blotting. SLM tissue punches (1 mm diameter) were dissected from area CA1 in hippocampal slices and pooled (3-4 punches/sample). Membranes were probed with antibodies directed against GluA1 (Millipore Bioscience Research Reagents) and β-actin (Cell Signaling Technology). Levels of proteins are expressed as the ratio of intensity normalized to β-actin intensity, as done previously (Kallarackal et al., 2013).
# SLM tissue was harvested from slices taken from unstressed rats, rats subjected to ten days of CRS and given a vehicle injection 24 hrs earlier, and rats subjected to ten days of CRS and given an injection of L-655,708 24 hrs earlier (0.7 mg/kg, i.p.). These were the same rats used for FIG. 6.
# [2] = test system: forebrain binding sites; conditions: 0.7 mg/kg i.p.; Atack et al., 2005; cited from earlier work
# [3] = test system: unstressed rats; assay: Sucrose preference and social interaction tests in unstressed rats; format: in vivo, rat; conditions: 24 hrs after injection
# Experimental: (§1) Sucrose preference test (SPT). Rats were given a choice between two bottles containing tap water or a 1% sucrose solution (Rygula et al., 2006). Testing was conducted overnight (16 hours), including the full duration of their dark phase. Animals were first trained with both bottles while group-housed. For subsequent tests, including during the baseline period, animals were individually housed. Sucrose preference was calculated as amount of the sucrose solution consumed as a percentage of the total amount of liquid consumed.
# Social interaction test (SIT). As described previously (Berton et al., 2006), rats were placed in a plastic enclosure (82×82 cm) with a 5×5 grid of squares (16.4×16.4 cm) visible underneath the clear plastic flooring. A small translucent perforated plastic box (20×16 cm) was placed against the center of one wall of the arena. […]
# (§2) Each test consisted of a “target-absent” trial followed by a “target-present” trial. During testing, an individual test rat was placed in the center of the arena and, after 30s of adaptation, the rat's movements were recorded with the video camera for 2.5 minutes. […]
# (§3) Results were quantified as the percentage of time spent in the “interaction zone” (the five grid squares immediately surrounding the plastic cage) as measured for both the “target-absent” and “target-present” trials. […]
# [4] = test system: rats; assay: Open field test (anxiety); conditions: rat, in vivo
# Text: C1. One cohort of control rats are given a baseline open field test. One week later, half of the animals receive an injection of L-665,708 or vehicle, followed 24 hrs later by a second open field test in a new arena.
# [5] = test system: rats subjected to chronic unpredictable stress; assay: Sucrose preference test (SPT) after chronic unpredictable stress (CUS); format: in vivo, rat; conditions: L-655,708 24 hours earlier
# Experimental: Sucrose preference test. Rats are administered a sucrose preference test before chronic unpredictable stress or no stress. The left bar of the pairs (black) reflects CUS rats and the right bar of the pairs (white) reflects unstressed rats.
# (§4) Chronic unpredictable stress (CUS). Male Sprague-Dawley rats (4-5 weeks-old; Harlan Laboratories) were randomly divided into control and CUS groups. Rats in the CUS group were individually housed. CUS animals were treated with two mild stressors every day for 5-6 weeks during their light phase (Willner et al., 1987). The stressors were randomly cycled to enhance unpredictability. The stressors were: forced swim, in which rats were placed in a basin containing cold water for 5 minutes; strobe lighting, in otherwise total darkness for 30 minutes; restraint, during which rats were put into appropriately sized restraint tubes for 30 minutes; exposure to white noise for 30 minutes; and food or water deprivation for 14 hours spanning the dark phase.
# as §1, with “Animals were first trained with both bottles while group-housed. For subsequent tests, including during the baseline period, animals were individually housed.” left out
# [6] = test system: rats subjected to chronic unpredictable stress; assay: Social interaction test (SIT) after chronic unpredictable stress (CUS); format: in vivo, rat
# Experimental: as §4
# Social interaction test (SIT). […]
# as §2, §3
smiles,measurement,setting,value
"CCOC(=O)c1ncn2c1[C@@H]1CCCN1C(=O)c1cc(OC)ccc1-2 [L-655,708, ethyl (13aS)-7-methoxy-9-oxo-11, 12,13,13 a-terahydro-9H-imidazo[1,5-a]pyrrolo[2,1-c] [1,4]benzodiazepine-1-carboxylate]",phosphorylation of S831 of GluA1 in SLM,"[1]; CRS rats, 24 hours after injection",increased
same,GluA1 protein level in SLM (normalized to β-actin),"[1]; CRS rats, L-655,708 24 hrs earlier",not significantly different than levels in unstressed controls; also recorded: increased
same,phosphorylation of S831 and total GluA1 expression in SLM,"[1]; unstressed animals, 24 hours after injection",no effect
same,occupancy of forebrain binding sites,[2],about 70%
same,social interaction,[3],no change
same,sucrose preference,[3],no change
same,anxiety in the open field test,[4],no evidence of increased anxiety
same,sucrose preference,[5],restores the behavior; also recorded: restored sucrose preference
same,number of CUS rats in which social interaction was reversed,"[6]; CUS 4 weeks plus one week, L-655,708 0.7 mg/kg i.p. 24 hrs earlier",14 of 18
same,social interaction,"[6]; CUS rats, single injection of L-655,708 0.7 mg/kg i.p. 24 hrs earlier",restores the behavior; also recorded: reversed to levels that were not significantly different than pre-stress baseline
